The values below are quoted from earlier work in patent US20210379090A1, “REMDESIVIR ORAL DELIVERY SYSTEM” (ABON PHARMACEUTICALS, LLC, priority 2020, published 2021).

For data set [1] the following is noted: would likely result in almost complete first-pass clearance after oral delivery.
Data set [2] deals with COVID-19. As to conditions: received early within 10 days of symptom onset vs treated late after more than 10 days of symptoms.

As for Remdesivir, the solubility in water entry was “practically insoluble”. Also, in data set [1], the hepatic stability entry is reported as “poor hepatic stability”. In addition, the clinical outcome in data set [2] is recorded as “improved outcomes”.
